Test results as given in US9738634B2, “Heterocyclic amide compound and herbicide” (SYNGENTA PARTICIPATIONS AG, priority 2013, dated 2017).

How the values were obtained:
Assay type in all cases: in vivo
Conditions in all cases: treatment dosage 320 g/ha
crabgrass [1] = assay: Test Example 3: weedkilling efficacy through soil treatment; D: crabgrass
Method in brief: (§1)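 Crop and weed responses were judged three weeks after a uniform surface spray of the water-diluted emulsion at the given g/ha rate. Seeds sat beneath about 1.5 cm of sterilized diluvial soil, and boxes stood in a greenhouse at 25 to 30° C.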

chickweed [2] = assay: Test Example 3: weedkilling efficacy through soil treatment; N: chickweed
Method in brief: as §1

rapeseed [3] = assay: Test Example 3: soil treatment, effect on crop; g: rapeseed
Method in brief: as §1

barnyard grass [4] = assay: Test Example 3: weedkilling efficacy through soil treatment; F: barnyard grass
Method in brief: as §1

corn [5] = assay: Test Example 3: soil treatment, effect on crop; c: corn
Method in brief: as §1

oval-leafed pondweed [6] = assay: Test Example 2: weedkilling efficacy, growth period weed treatment in the submerged state; C: oval-leafed pondweed
Method in brief: (§2)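 Seedlings at 1-2 leaves in 4 cm-deep submerged alluvial soil received emulsion formulations on the water surface, dosed per hectare; effects were judged 3 weeks on.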

soybean [7] = assay: Test Example 4: foliar treatment, effect on crop; d: soybean
Method in brief: (§3)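 Seeds are spot-sown into sterilized diluvial soil and covered with about 1.5 cm of soil. After 14 days' greenhouse growth at 25 to 30° C, plants are sprayed on stems and leaves with diluted emulsion at the stated g/ha rate, then scored at 3 weeks.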

beet [8] = assay: Test Example 4: foliar treatment, effect on crop; f: beet
Method in brief: as §3

redroot pigweed [9] = assay: Test Example 4: weedkilling efficacy by foliar treatment; L: redroot pigweed
Method in brief: as §3

fig-leafed goosefoot [10] = assay: Test Example 4: weedkilling efficacy by foliar treatment; M: fig-leafed goosefoot
Method in brief: as §3

soybean [11] = assay: Test Example 3: soil treatment, effect on crop; d: soybean
Method in brief: as §1

barnyard grass [12] = assay: Test Example 2: weedkilling efficacy, growth period weed treatment in the submerged state; A: barnyard grass
Method in brief: as §2

wheat [13] = assay: Test Example 3: soil treatment, effect on crop; e: wheat
Method in brief: as §1

green foxtail [14] = assay: Test Example 3: weedkilling efficacy through soil treatment; E: green foxtail
Method in brief: as §1

black-grass [15] = assay: Test Example 3: weedkilling efficacy through soil treatment; H: black-grass
Method in brief: as §1

Indian mallow [16] = assay: Test Example 3: weedkilling efficacy through soil treatment; K: Indian mallow
Method in brief: as §1

barnyard grass [17] = assay: Test Example 4: weedkilling efficacy by foliar treatment; F: barnyard grass
Method in brief: as §3

bulrush [18] = assay: Test Example 1: weedkilling efficacy, preemergent weed treatment in the submerged state; B: bulrush
Method in brief: (§4)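 Submerged pre-emergence treatment, water-surface application of compound emulsion at g/ha dosages; 4 cm flooded alluvial soil, weeds sown and 2.5-leaf rice transplanted same day. Rated after 3 weeks, greenhouse.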

wild oat [19] = assay: Test Example 4: weedkilling efficacy by foliar treatment; G: wild oat
Method in brief: as §3

green foxtail [20] = assay: Test Example 4: weedkilling efficacy by foliar treatment; E: green foxtail
Method in brief: as §3

bulrush [21] = assay: Test Example 2: weedkilling efficacy, growth period weed treatment in the submerged state; B: bulrush
Method in brief: as §2

Italian ryegrass [22] = assay: Test Example 3: weedkilling efficacy through soil treatment; I: Italian ryegrass
Method in brief: as §1

Indian mallow [23] = assay: Test Example 4: weedkilling efficacy by foliar treatment; K: Indian mallow
Method in brief: as §3

wild oat [24] = assay: Test Example 3: weedkilling efficacy through soil treatment; G: wild oat
Method in brief: as §1

corn [25] = assay: Test Example 4: foliar treatment, effect on crop; c: corn
Method in brief: as §3

barnyard grass [26] = assay: Test Example 1: weedkilling efficacy, preemergent weed treatment in the submerged state; A: barnyard grass
Method in brief: as §4

birds-eye speedwell = assay: Test Example 4: weedkilling efficacy by foliar treatment; p: birds-eye speedwell
Method in brief: as §3

rapeseed [27] = assay: Test Example 4: foliar treatment, effect on crop; g: rapeseed
Method in brief: as §3

Italian ryegrass [28] = assay: Test Example 4: weedkilling efficacy by foliar treatment; I: Italian ryegrass
Method in brief: as §3

wheat [29] = assay: Test Example 4: foliar treatment, effect on crop; e: wheat
Method in brief: as §3

black-grass [30] = assay: Test Example 4: weedkilling efficacy by foliar treatment; H: black-grass
Method in brief: as §3

common wind-grass [31] = assay: Test Example 3: weedkilling efficacy through soil treatment; J: common wind-grass
Method in brief: as §1

directly sown rice [32] = assay: Test Example 3: soil treatment, effect on crop; b: directly sown rice
Method in brief: as §1

catchweed = assay: Test Example 4: weedkilling efficacy by foliar treatment; O: catchweed
Method in brief: as §3

oval-leafed pondweed [33] = assay: Test Example 1: weedkilling efficacy, preemergent weed treatment in the submerged state; C: oval-leafed pondweed
Method in brief: as §4

common wind-grass [34] = assay: Test Example 4: weedkilling efficacy by foliar treatment; J: common wind-grass
Method in brief: as §3

crabgrass [35] = assay: Test Example 4: weedkilling efficacy by foliar treatment; D: crabgrass
Method in brief: as §3

chickweed [36] = assay: Test Example 4: weedkilling efficacy by foliar treatment; N: chickweed
Method in brief: as §3

transplanted rice = assay: Test Example 1: preemergent weed treatment in the submerged state, effect on crop; a: transplanted rice
Method in brief: as §4

fig-leafed goosefoot [37] = assay: Test Example 3: weedkilling efficacy through soil treatment; M: fig-leafed goosefoot
Method in brief: as §1

beet [38] = assay: Test Example 3: soil treatment, effect on crop; f: beet
Method in brief: as §1

redroot pigweed [39] = assay: Test Example 3: weedkilling efficacy through soil treatment; L: redroot pigweed
Method in brief: as §1

directly sown rice [40] = assay: Test Example 4: foliar treatment, effect on crop; b: directly sown rice
Method in brief: as §3

Structure (SMILES): CC1=C(c2ccccc2)C(=O)N(C(C)(C)C(=O)Nc2cc(F)nc(F)c2)CO1 [B-4-04]
- D (crabgrass) weedkilling efficacy grade (crabgrass [1]): 5 (weed kill ratio 90% or more, (practically complete withering))
- N (chickweed) weedkilling efficacy grade (chickweed [2]): 4 (weed kill ratio 70% or more, less than 90%)
- g (rapeseed) effect on crop grade (rapeseed [3]): 4 (weed kill ratio 70% or more, less than 90%)
- F (barnyard grass) weedkilling efficacy grade (barnyard grass [4]): 5 (weed kill ratio 90% or more, (practically complete withering))
- c (corn) effect on crop grade (corn [5]): 0 (weed kill ratio 5% or less (practically no effect))
- C (oval-leafed pondweed) weedkilling efficacy grade (oval-leafed pondweed [6]): 5 (weed kill ratio 90% or more, (practically complete withering))
- d (soybean) effect on crop grade (soybean [7]): 1 (weed kill ratio 5% or more, less than 20%)
- f (beet) effect on crop grade (beet [8]): 4 (weed kill ratio 70% or more, less than 90%)
- L (redroot pigweed) weedkilling efficacy grade (redroot pigweed [9]): 3 (weed kill ratio 40% or more, less than 70%)
- M (fig-leafed goosefoot) weedkilling efficacy grade (fig-leafed goosefoot [10]): 4 (weed kill ratio 70% or more, less than 90%)
- d (soybean) effect on crop grade (soybean [11]): 0 (weed kill ratio 5% or less (practically no effect))
- A (barnyard grass) weedkilling efficacy grade (barnyard grass [12]): 5 (weed kill ratio 90% or more, (practically complete withering))
- e (wheat) effect on crop grade (wheat [13]): 0 (weed kill ratio 5% or less (practically no effect))
- E (green foxtail) weedkilling efficacy grade (green foxtail [14]): 5 (weed kill ratio 90% or more, (practically complete withering))
- H (black-grass) weedkilling efficacy grade (black-grass [15]): 5 (weed kill ratio 90% or more, (practically complete withering))
- K (Indian mallow) weedkilling efficacy grade (Indian mallow [16]): 0 (weed kill ratio 5% or less (practically no effect))
- F (barnyard grass) weedkilling efficacy grade (barnyard grass [17]): 4 (weed kill ratio 70% or more, less than 90%)
- B (bulrush) weedkilling efficacy grade (bulrush [18]): 5 (weed kill ratio 90% or more, (practically complete withering))
- G (wild oat) weedkilling efficacy grade (wild oat [19]): 2 (weed kill ratio 20% or more, less than 40%)
- E (green foxtail) weedkilling efficacy grade (green foxtail [20]): 4 (weed kill ratio 70% or more, less than 90%)
- B (bulrush) weedkilling efficacy grade (bulrush [21]): 5 (weed kill ratio 90% or more, (practically complete withering))
- I (Italian ryegrass) weedkilling efficacy grade (Italian ryegrass [22]): 5 (weed kill ratio 90% or more, (practically complete withering))
- K (Indian mallow) weedkilling efficacy grade (Indian mallow [23]): 5 (weed kill ratio 90% or more, (practically complete withering))
- G (wild oat) weedkilling efficacy grade (wild oat [24]): 0 (weed kill ratio 5% or less (practically no effect))
- c (corn) effect on crop grade (corn [25]): 1 (weed kill ratio 5% or more, less than 20%)
- A (barnyard grass) weedkilling efficacy grade (barnyard grass [26]): 5 (weed kill ratio 90% or more, (practically complete withering))
- P (birds-eye speedwell) weedkilling efficacy grade (birds-eye speedwell): 4 (weed kill ratio 70% or more, less than 90%)
- g (rapeseed) effect on crop grade (rapeseed [27]): 3 (weed kill ratio 40% or more, less than 70%)
- I (Italian ryegrass) weedkilling efficacy grade (Italian ryegrass [28]): 4 (weed kill ratio 70% or more, less than 90%)
- e (wheat) effect on crop grade (wheat [29]): 4 (weed kill ratio 70% or more, less than 90%)
- H (black-grass) weedkilling efficacy grade (black-grass [30]): 4 (weed kill ratio 70% or more, less than 90%)
- J (common wind-grass) weedkilling efficacy grade (common wind-grass [31]): 5 (weed kill ratio 90% or more, (practically complete withering))
- b (directly sown rice) effect on crop grade (directly sown rice [32]): 3 (weed kill ratio 40% or more, less than 70%)
- O (catchweed) weedkilling efficacy grade (catchweed): 4 (weed kill ratio 70% or more, less than 90%)
- C (oval-leafed pondweed) weedkilling efficacy grade (oval-leafed pondweed [33]): 5 (weed kill ratio 90% or more, (practically complete withering))
- J (common wind-grass) weedkilling efficacy grade (common wind-grass [34]): 4 (weed kill ratio 70% or more, less than 90%)
- D (crabgrass) weedkilling efficacy grade (crabgrass [35]): 4 (weed kill ratio 70% or more, less than 90%)
- N (chickweed) weedkilling efficacy grade (chickweed [36]): 3 (weed kill ratio 40% or more, less than 70%)
- a (transplanted rice) effect on crop grade (transplanted rice): 0 (weed kill ratio 5% or less (practically no effect))
- M (fig-leafed goosefoot) weedkilling efficacy grade (fig-leafed goosefoot [37]): 3 (weed kill ratio 40% or more, less than 70%)
- f (beet) effect on crop grade (beet [38]): 2 (weed kill ratio 20% or more, less than 40%)
- L (redroot pigweed) weedkilling efficacy grade (redroot pigweed [39]): 3 (weed kill ratio 40% or more, less than 70%)
- b (directly sown rice) effect on crop grade (directly sown rice [40]): 4 (weed kill ratio 70% or more, less than 90%)
